{"source": "patent US12378211B2", "about": "“Carbonic anhydrase inhibitors and antibiotics against multidrug resistant bacteria” (Purdue Research Foundation, priority 2018, dated 2025)", "key": {"[1]": {"tested_on": "Enterococcus faecalis—S613 HM-334", "assay": "MIC of CAIs in BHIB and TSB", "assay_type": "cell-based", "details": "Enterococcus, read-out: MIC", "method_in_brief": "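Broth microdilution per CLSI in TSB or BHIB, inoculum about 5×10^5 CFU/mL from 0.5 McFarland suspension, serial two-fold compound dilutions. Incubated aerobically at 37° C for 18-20 h; MIC is the lowest concentration completely inhibiting visible growth.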"}, "[2]": {"tested_on": "vancomycin-resistant E. faecium", "assay": "Mouse model of GI colonization by VRE", "assay_type": "in vivo, C57BL/6 mice", "excerpt": "Feasibility in vivo study: AZM reduces VRE load in the intestines and faeces. The promising feature, and the specific and potent antimicrobial activity of CAIs, prompted us to evaluate the in vivo efficacy of AZM in our established mouse model of GI colonization by enterococci with features that mimic the antibiotic-induced enterococcal expansion observed in humans (Mohammad, H. et al., Int J Antimicrob Agents 2018, 51, 897-904; Abdelkhalek, A, et al., PLoS One 2018, 13, e0199710). We tested AZM (two clinical doses 10 and 20 mg/kg) in female 12-week-old C57BL/6 mice (n=5 mice per group) that were sensitized with ampicillin ([…] in drinking water) for 7 days to reduce the microbiota present in the gastrointestinal tract and colonized with 10^8 CFU/mL of vancomycin-resistant E. faecium.\nWe thought that the rapid absorption of AZM from the gastrointestinal tract would limit their exposure time to VRE present in the gastrointestinal tract.\nMice were treated for 8 days with 10 mg/kg of drugs by oral gavage."}, "[3]": {"details": "cited from earlier work"}, "[4]": {"tested_on": "Enterococcus faecium E417-HM-965", "assay": "MIC of CAIs in BHIB and TSB", "assay_type": "cell-based", "details": "Enterococcus faecium, read-out: MIC", "method_in_brief": "(§1)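 Broth microdilution per CLSI guidelines, with inoculum about 5×10^5 CFU/mL prepared from 0.5 McFarland suspensions in TSB or BHIB. Compounds were serially diluted and plates incubated aerobically at 37° C for 18-20 hours. MIC was the lowest concentration giving complete inhibition of visible growth.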"}, "[5]": {"tested_on": "Enterococcus faecium Patient #2-1-NR-31909", "assay": "MIC of CAIs in BHIB and TSB", "assay_type": "cell-based", "details": "Enterococcus faecium, read-out: MIC", "method_in_brief": "as §1"}, "[6]": {"tested_on": "Enterococcus fecalis Strain SF 24397 NR31970", "assay": "MIC of CAIs in BHIB and TSB", "assay_type": "cell-based", "details": "Enterococcus, read-out: MIC", "method_in_brief": "as §1"}, "E. faecium NR 31909": {"tested_on": "E. faecium NR 31909", "details": "oral 20 mg/kg daily for 4 days", "excerpt": "Saline was used as a negative control. Mice were euthanized on day 5 and organs (liver, spleen and kidneys) were aseptically removed and homogenized, and viable VRE were enumerated by serial dilution and plating."}, "[7]": {"details": "cited from earlier work", "remark": "listed apart in the source"}}, "note": "Like-named read-outs stand apart in the source and are kept apart here.", "data": [{"smiles": "CC(=O)Nc1nnc(S(N)(=O)=O)s1", "note": "[Acetazolamide, reference compound]", "values": [{"measurement": "MIC", "setting": "[1]; BHIIB", "result": "> 128", "unit": "µg/mL"}, {"measurement": "MIC", "setting": "[1]; TSB, Table 5", "result": 2, "unit": "µg/mL"}, {"measurement": "VRE decolonization compared with linezolid", "setting": "[2]; AZM 10 and 20 mg/kg, linezolid 10 mg/kg once daily for 8 days", "result": "outperformed linezolid"}, {"measurement": "VRE in feces, cecal content and ileal content compared to control mice", "setting": "[2]; once a day at 10 mg/kg or 20 mg/kg, feces as early as 3rd day", "result": "significant reduction"}, {"measurement": "time to peak plasma concentrations", "setting": "[3]; after oral administration", "result": "1 to 3", "unit": "h"}, {"measurement": "serum concentration", "setting": "[3]; after single oral dose", "result": "20000 to 100000", "unit": "ng/mL"}, {"measurement": "MIC", "setting": "[4]; E417HM965, BHIB", "result": 8, "unit": "µg/mL"}, {"measurement": "MIC", "setting": "[4]; E417HM965, TSB, Table 5", "result": 2, "unit": "µg/mL"}, {"measurement": "MIC", "setting": "[5]; BHIB", "result": 64, "unit": "µg/mL"}, {"measurement": "MIC", "setting": "[5]; TSB, Table 5", "result": 2, "unit": "µg/mL"}, {"measurement": "MIC", "setting": "[6]; BHIB", "result": "> 128", "unit": "µg/mL"}, {"measurement": "MIC", "setting": "[6]; TSB, Table 5", "result": 2, "unit": "µg/mL"}, {"measurement": "mice protected against a lethal dose (survival)", "setting": "E. faecium NR 31909; from two hours after challenge", "result": 100, "unit": "%"}, {"measurement": "reduction of bacterial load in internal organs", "setting": "E. faecium NR 31909; liver, spleen, kidneys on day 5", "result": "superior to linezolid"}, {"measurement": "oral LD50 (mouse)", "setting": "[7]", "result": 4300, "unit": "mg/kg"}]}, {"smiles": "CC(=O)NC[C@H]1CN(c2ccc(N3CCOCC3)c(F)c2)C(=O)O1", "note": "[Linezolid, reference compound]", "values": [{"measurement": "MIC", "setting": "[1]; BHIIB", "result": 1, "unit": "µg/mL"}, {"measurement": "MIC", "setting": "[1]; TSB, Table 5", "result": 1, "unit": "µg/mL"}, {"measurement": "MIC", "setting": "[6]; TSB, Table 5", "result": 1, "unit": "µg/mL"}]}]}
